These are literature values, as cited in patent US20030180387A1, “Method for increasing the antioxidative potential of selenium-containing aqueous solutions” (priority 2000, published 2003).

Like-named read-outs stand apart in the source and are kept apart here.

`O=[Se](O)O` [selenite]: the “Eo, standard redox potential” value (acidic environment) is −0.740 (acidic environment) Volt and the “Eo, standard redox potential” value (basic environment) is “+0.366 (basic environment) Volt”.
